Results reported in patent publication US20220387469A1, “METHOD OF UTILIZING ULTRAFINE BUBBLES” (Shiseido Company, Ltd., priority 2019, published 2022).

Assay: Permeation of adenosine into stratum corneum of forearm skin (tape peel, LC-MS quantification)
Type: in vivo, human
Conditions: forearm of a test subject, Formulation 1 that contains ultrafine bubbles (aerosol spray, actuator D391, nitrogen 0.9 MPa) applied first, then Formulation 2 (0.2% adenosine) applied for 10 minutes, 1 cm by 1 cm stratum corneum
From the text: In order to provide Formulation 1 that contains ultrafine bubbles onto the skin, the aerosol container 10 was filled with Formulation 1, and the interior pressure was set to 0.9 MPa with nitrogen gas. The actuator “D391” having a flow rate adjusting mechanism produced by K. K. Mitani Valves was applied as the spray actuator 11.
That is, a liquid which was sprayed from the aerosol container 10 and Formulation 1 as an undiluted liquid were applied to two different locations on a forearm of a test subject. Thereafter, Formulation 2 that contains adenosine was applied onto each of the two locations for 10 minutes. Next, 1 cm by 1 cm squares of stratum corneum were peeled from the locations onto which the formulations were applied, stratum corneum components were extracted, and the amounts of adenosine were quantitatively analyzed by the LC-MS method (Liquid Chromatography Mass Spectrometry method).

amount of adenosine within the stratum corneum, relative to the case that Formulation 1 that did not contain ultrafine bubbles was applied: 1.6 times
SMILES: Nc1ncnc2c1ncn2[C@@H]1O[C@H](CO)[C@@H](O)[C@H]1O [adenosine]
